Measurements as given in patent US20250346581A1, “PROCESS FOR SYNTHESIS OF GALBULIMIMA ALKALOID 18 AND COMPOUNDS USEFUL AS OPIOID RECEPTOR ANTAGONISTS AND AGONISTS” (The Scripps Research Institute, priority 2022, published 2025).
“Also recorded” adds a separate entry of the source. Like-named read-outs stand apart in the source and are kept apart here. Marks after values point to notes of the source that are not given here.

What was measured:
KOR [1] = target: T1, KOR (Homo sapiens, UniProt P41145); assay: KOR cAMP inhibition screening, antagonist mode vs. 100 nM U69,593; conditions: Antagonist vs. 100 nM U69,593 IC50 (nM)
T1 sequence (P41145 whole entry): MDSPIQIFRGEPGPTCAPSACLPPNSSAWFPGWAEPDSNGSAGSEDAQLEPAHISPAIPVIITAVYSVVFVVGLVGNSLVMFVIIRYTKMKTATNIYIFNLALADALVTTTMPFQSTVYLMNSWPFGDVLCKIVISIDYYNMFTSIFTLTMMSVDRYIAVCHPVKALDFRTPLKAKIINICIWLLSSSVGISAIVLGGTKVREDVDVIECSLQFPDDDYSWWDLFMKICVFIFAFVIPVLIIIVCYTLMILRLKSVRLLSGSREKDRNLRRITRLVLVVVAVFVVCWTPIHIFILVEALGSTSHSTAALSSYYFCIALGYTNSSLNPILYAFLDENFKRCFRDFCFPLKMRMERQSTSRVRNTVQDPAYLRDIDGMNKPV

KOR [2] = target: T1, KOR; assay: KOR cAMP inhibition screening, agonist mode
[3] = target: T2, kappa-opioid receptors (KOR) (Homo sapiens, UniProt P41145); assay: NIMH PDSP radioligand displacement, [3H]U-69593; type: binding; conditions: for displacement of [3H]U-69593 from KOR: 10 μM
T2 construct: NIMH Psychoactive Drug Screening Program (screening service)
T2 sequence (P41145 whole entry): as above

Mas-related GPCRs = assay: Follow-up assay Mas-related GPCRs; type: cell-based
KOR [4] = target: T1, KOR; assay: TANGO assay KOR; type: cell-based
>40 common drug targets = assay: NIMH PDSP binding screen of common drug targets; conditions: 10 μM
[5] = target: T3, mu-opioid receptors (MOR) (Homo sapiens, UniProt P35372); assay: NIMH PDSP radioligand displacement, [3H]DAMGO; type: binding; conditions: 10 μM
T3 construct: NIMH Psychoactive Drug Screening Program (screening service)
T3 sequence (P35372 whole entry): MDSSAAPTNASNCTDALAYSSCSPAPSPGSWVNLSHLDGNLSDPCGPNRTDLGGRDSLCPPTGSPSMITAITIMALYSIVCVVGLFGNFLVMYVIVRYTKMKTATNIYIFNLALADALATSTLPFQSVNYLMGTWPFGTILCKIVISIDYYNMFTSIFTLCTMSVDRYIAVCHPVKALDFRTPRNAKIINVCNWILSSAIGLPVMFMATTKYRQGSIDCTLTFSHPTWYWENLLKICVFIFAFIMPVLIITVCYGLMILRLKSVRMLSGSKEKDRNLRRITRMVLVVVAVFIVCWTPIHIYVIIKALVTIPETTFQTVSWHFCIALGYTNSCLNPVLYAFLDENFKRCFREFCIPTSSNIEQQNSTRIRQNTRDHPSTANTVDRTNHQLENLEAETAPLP

delta-opioid receptors = delta-opioid receptors (Homo sapiens, UniProt P41143); assay: Follow-up assay delta-opioid receptor; type: cell-based
delta-opioid receptors, sequence (P41143 whole entry): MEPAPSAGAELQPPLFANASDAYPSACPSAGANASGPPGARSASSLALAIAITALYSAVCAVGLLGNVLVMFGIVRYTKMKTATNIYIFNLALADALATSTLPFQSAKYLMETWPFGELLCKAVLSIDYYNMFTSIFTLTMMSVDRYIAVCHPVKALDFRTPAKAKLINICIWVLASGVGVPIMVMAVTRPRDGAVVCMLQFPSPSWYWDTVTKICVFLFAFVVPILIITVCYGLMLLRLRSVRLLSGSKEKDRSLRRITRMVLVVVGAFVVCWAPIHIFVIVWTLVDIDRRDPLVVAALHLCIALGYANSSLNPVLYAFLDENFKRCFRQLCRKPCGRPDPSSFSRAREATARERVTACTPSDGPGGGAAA

MOR = MOR (Homo sapiens, UniProt P35372); assay: TANGO assay MOR; type: cell-based
MOR, sequence (P35372 whole entry): as the sequence (P35372 whole entry) above

[6] = target: nociceptin opioid receptors (Homo sapiens, UniProt P41146); assay: Follow-up assay nociceptin opioid receptor; type: cell-based
nociceptin opioid receptors, sequence (P41146 whole entry): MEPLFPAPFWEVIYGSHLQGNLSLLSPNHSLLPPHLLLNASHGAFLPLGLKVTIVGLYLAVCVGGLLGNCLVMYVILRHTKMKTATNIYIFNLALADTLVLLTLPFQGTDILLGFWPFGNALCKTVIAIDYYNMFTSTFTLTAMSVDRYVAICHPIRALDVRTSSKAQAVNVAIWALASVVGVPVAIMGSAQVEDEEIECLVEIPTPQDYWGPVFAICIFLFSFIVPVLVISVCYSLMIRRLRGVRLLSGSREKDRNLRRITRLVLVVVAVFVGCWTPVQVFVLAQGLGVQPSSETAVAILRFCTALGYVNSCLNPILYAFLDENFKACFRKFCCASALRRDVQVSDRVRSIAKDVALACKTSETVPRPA

mouse [7] = conditions: 5 mg/kg; cited from earlier work
M1-5 = assay: Muscarinic receptor binding (FIG. 3)
Excerpt: Thus, the topology changes that differentiate the two subclasses also differentiate target selectivity.

mouse [8] = conditions: 5 mg/kg; cited from earlier work; remark: listed apart in the source
cats = conditions: 2.5 mg/kg, i.v. administration; cited from earlier work
rabbit intestine = conditions: 0.1 mg/L, furmethide-induced spasm; cited from earlier work
KOR [9] = target: T1, KOR
mammals [10] = conditions: cited from earlier work
mammals [11] = conditions: in vivo; cited from earlier work
[12] = read-out: Agonist Emax (% U69,593)
[13] = read-out: Agonist Emax (% U69,593), KOR cAMP, agonist mode

Compound CC1CCCC(C2CC3C4CCCCC45C=C(I)C4C2(C)OC345)N1C (stereo not drawn) has an IC50 (KOR [1]) of 830 nM.

With C#CCOC(=O)C1=CC23CCCCC2C2CC(C4CCCC(C)N4)C4(C)OC23C14 (stereo not drawn) the IC50 (KOR [1]) was 556 nM and the Emax (KOR [2]; [12]) was 5%.

In the case of CCOC(=O)C1=CC23CCCCC2C2CC(C4CCCC(C)N4C)C4(C)OC23C14 (stereo not drawn), the IC50 (KOR [1]) is reported as 3390 nM and the Emax (KOR [2]; [12]) is reported as 15%.

With CC1CCCC(C2CC3C4CCCCC45C=C(C#N)C4C2(C)OC345)N1C (stereo not drawn) the Emax (KOR [2]; [13]) was 8%.

Work on CC1CCCC([C@H]2C[C@H]3C4CCCCC45C=C(I)[C@H]4C2(C)OC345)N1C (stereo partly drawn) yielded an IC50 (KOR [1]) of 1400 nM.

Compound C=CCN1C(C)CCCC1C1CC2C3CCCCC34C=C(C(=O)OC)C3C1(C)OC234 (stereo not drawn) has an Emax (KOR [2]; [13]) of 2%.

Compound COC(=O)C1=CC23CCCCC2C2CC(C4CCCC(C)N4C(C)=O)C4(C)OC23C14 (stereo not drawn) has an IC50 (KOR [1]) greater than 10000 nM and an Emax (KOR [2]; [12]) of 10%.

Work on CC1CCCC(C2CC3C4CCCCC45C=C(CO)C4C2(C)OC345)N1C (stereo not drawn) yielded an IC50 (KOR [1]) of 116 nM and an Emax (KOR [2]; [12]) of 12%.

With COCC1=CC23CCCCC2C2CC(C4CCCC(C)N4C)C4(C)OC23C14 (stereo not drawn) the IC50 (KOR [1]) was 3220 nM and the Emax (KOR [2]; [12]) was 14%.

CC(=O)C1=CC23CCCCC2C2CC(C4CCCC(C)N4C)C4(C)OC23C14 (stereo not drawn) showed an Emax (KOR [2]; [13]) of 12%.

With COCC(=O)C1=CC23CCCCC2C2CC(C4CCCC(C)N4C)C4(C)OC23C14 (stereo not drawn) the Emax (KOR [2]; [13]) was 10%.

CC1CCCC(C2CC3C4CCCCC45C=C(C4=NCCO4)C4C2(C)OC345)N1C (stereo not drawn) gave an Emax (KOR [2]; [13]) of 4%.

COC1CC23CCCCC2C2CC(c4cccc(C)n4)C4(C)OC23C14 (stereo not drawn) gave an Emax (KOR [2]; [13]) of 5%.

With COC(=O)C1=CC23CCCCC2[C@@H]2C[C@H](c4cccc(C)c4)C4(C)OC23[C@@H]14 (stereo partly drawn) the “Agonist Emax (% U69,593)” value (KOR [2]) was 60* % U69,593 and the EC50 (KOR [2]) was 1050 nM.

COC(=O)C1=CC23CCCCC2[C@@H]2C[C@H](c4cccnc4)C4(C)OC23[C@@H]14 (stereo partly drawn) showed an IC50 (KOR [1]) greater than 10000 nM and an Emax (KOR [2]; [12]) of 19%.

For COC(=O)C1=CC23CCCCC2[C@H]2C[C@@H](C4CCCC(C)N4)C(C)(O3)[C@@H]12 (single isomer, unassigned) [ent-GB18], the “displacement of [3H]U-69593 from KOR” value [3] was 56% and the Ki ([3]; [3H]U-69593 displacement) was 1100 nM.

With COC(=O)C1=CC23CCCCC2[C@@H]2C[C@H](C4CCCC(C)N4)C(C)(O3)[C@H]12 (single isomer, unassigned) [nat-GB18] the “ligation of Mas-related GPCRs” value (Mas-related GPCRs) was “not strongly ligated”, the IC50 (KOR [4]; TANGO, antagonist) was 10 nM and the “binding to >40 common drug targets” value (>40 common drug targets) was “low or statistically-insignificant”. For the same compound, the “displacement of [3H]DAMGO from MOR” value [5] was 85%, the “ligation of delta-opioid receptors” value (delta-opioid receptors) was “not strongly ligated” and the “displacement of [3H]U-69593 from KOR” value [3] was 87%. For the same compound, the IC50 (MOR; TANGO, antagonist) was 12 nM and the “ligation of nociceptin opioid receptors” value [6] was “not strongly ligated”.

In the case of COC(=O)C1=C[C@@]23CCCC[C@H]2[C@@H]2C[C@H]([C@H]4CCC[C@@H](C)N4)C(C)(O3)[C@H]12 [GB18, methyl (2R,3aS,5aR,9aS,9bS)-3-methyl-2-((2R,6R)-6-methylpiperidin-2-yl)-1,2,3,3a,6,7,8,9,9a,9b-decahydro-3,5a-epoxycyclopenta[a]naphthalene-4-carboxylate], the “antagonism of KOR” value (KOR [4]; FIG. 3) is listed as “high potency”, the “effect on pain threshold” value (mouse [7]) is listed as “without effect; also recorded: no effect” and the “binding to M1-5” value (M1-5) is listed as “does not bind”. The “antagonism of MOR” value (MOR; FIG. 3) was “high potency” and the “inhibition of mouse preening” value (mouse [8]) was “inhibition of preening; also recorded: inhibited mouse preening”.

For COC(=O)C1=C2C3(O)CC4CC5C3CCC(C)N5C24C2CCCC(OC)C2C1OC(=O)c1ccccc1 (stereo not drawn) [Himandrine], the heart rate (cats) is listed as “reduced heart rate” and the hypotension (cats) is listed as “marked and sustained hypotension”.

For C[C@@H]1CC[C@H]2[C@H](C[C@@H]3C[C@@]2(O)C2=CC(=O)[C@H]4CCCC[C@@H]4[C@H]23)N1C [Himbadine], the antispasmodic activity (rabbit intestine) is given as “significant antispasmodic activity”.

Work on COC(=O)C1CC23CCCCC2C2CC(C4CCCC(C)N4)C4(C)OC23C14 (stereo not drawn) [drawing 153] yielded an IC50 (KOR [1]) of 5000 nM and an Emax (KOR [2]; [13]) of 13%.

For COC(=O)C1CC23CCCCC2C2CC(C4CCCC(C)N4)C4(C)OC23C14 (stereo not drawn) [drawing 154], the “Agonist Emax (% U69,593)” value (KOR [9]) was 10* % U69,593 and the IC50 (KOR [1]) was greater than 10000 nM.

For COC1CC23CCCCC2C2CC(C4CCCC(C)N4)C4(C)OC23C14 (stereo not drawn) [drawing 167], the IC50 (KOR [1]) was 6250 nM and the “Agonist Emax (% U69,593)” value (KOR [2]) was 10* % U69,593.

With COC1CC23CCCCC2C2CC(C4CCCC(C)N4)C4(C)OC23C14 (stereo not drawn) [drawing 168] the Emax (KOR [2]; [12]) was 17%.

For COC(=O)C1=C2C3(O)CC4CC5C3CCC(C)N5C24C2CCC(O)C(OC)C2C1OC(=O)c1ccccc1 (stereo not drawn) [himandridine], the hypotensive activity (mammals [10]; 2.5 mg/kg) is given as “moderate to marked hypotensive activity”.

In the case of CC1CCCC(C=CC2C3CCCCC3CC3C(=O)OC(C)C32)N1 (stereo not drawn) [himbeline], the “depressant and hypotensive activity” value (mammals [10]; no dose listed) is given as “weakly depressant and hypotensive”.

For himandravine, the CNS depression (mammals [11]) is given as “strong CNS depression” and the “anticonvulsant activity against electroshock seizure” value (mammals [11]) is given as “anticonvulsant activity”.
